Patent US12521384B2, “Drug delivery composition using crosslinked hyaluronic acid and manufacturing method therefor” (JP cares, priority 2020, dated 2026)

Tests used:
Sprague-Dawley rats = experiment: Mechanical allodynia degree (threshold), von Frey up-down method, after plantar incision; assay type: in vivo; details: Gb: Ro 0.75% 300 + SC 300 (ropivacaine 2.25 mg); for threshold value (g), group average: once near sciatic nerve
Experimental: Specific pathogen-free (SPF) Sprague-Dawley rats [Cr1:CD (Sprague Dawley)] (Producer: Orient Bio Inc. (322, Galmachi-ro, Jungwon-gu, Seongnam-si, Gyeonggi-do)) were prepared according to the following condition. • (1) Number of animals at acquisition: male 28 rats • (2) Age at acquisition: about 7-week-old • (3) Body weight range at acquisition: 199.29 to 222.35 g • (4) Age at start of administration: about 8-week-old • (5) Body weight range at start of administration: 265.63 to 294.00 g • (6) Number of animals used: 24 rats • (7) Group separation
After disinfecting the left plantar part of the prepared test animals under general anesthesia, the skin and fascia with a length of 1 cm were incised in the longitudinal direction starting from the part 0.5 cm away from the tip of the back of the foot. The sole muscle (plantar muscle) of the incised part was lifted with forceps to separate 1 cm in length. […] All Ga to Gd doses […] were equally administered near the nerve tissue, and the number of animals comprised in the experimental group were 6.
As a method for measuring the degree of mechanical allodynia after preparing the test groups, a white rat was placed in a wire mesh cage with a net eye size of 2×2 mm and acclimatized for 15 minutes or more, and then the continuous reaction was evaluated by an up-down method using 8 consecutive von Frey filaments (1, 2, 4, 6, 8, 15, 26, 60 g, Stoelting, USA) when the movement of the rat became quiet. […] It was progressed as the weak filament was stimulated when the positive reaction was shown by stimulating from the von Frey filament in the center, and the strong filament was stimulated when there was no positive reaction. By the above method, measurement was performed before, and at 1, 2, 4, 8, 24, 48, 72, 120, 168 hours after administration of the test substance. For interpretation of the result of the pain behavior test, the case in that avoidance reaction was shown or the foot was lifted up on the net while in contact with a plastic plate was determined as positive. Stimulation was given twice at an interval of 3-5 minutes, and using the positive threshold among them, a response change curve with time was obtained.
Pain threshold values were measured before and at 1, 2, 4, 8, 24, 48, 72, 120, 168 after administration of the test substance of each animal of the Ga to Gd group test groups, and the average of the threshold values of each test group was calculated. In Table 4 below, the threshold value (g) measured over time of drug administration was shown.

[1] = Drug release behavior of bupivacaine (dialysis bag in PBS, RP-HPLC); assay type: physicochemical; details: 8 hours; PBS 37° C., 100 rpm
Experimental: By mixing the crosslinked hyaluronic acid gels, JPD001, JPD004 and (mixture of JPD001 and JPD004 at a weight ratio of 1:1) comprising the crosslinked hyaluronic acid solid prepared in Example 1 at a content of 2% by weight, which are Samples 1-1, 1-4 and 1-5 of Example 1 of 6 g, respectively, and 0.75% by weight bupivacaine solution 3 g, a drug preparation was prepared. A preparation in which non-crosslinked hyaluronic acid having a molecular weight of 1,500 kDa (repeated unit molecular weight 401.3) 2% by weight and a preparation comprising only the bupivacaine drug were prepared, respectively, as a control group.
The prepared drug preparation was put in a dialysis bag (MWCO: 12 K-14 K Da), separately. Then, the dialysis bag was immersed into a tube with 15 ml phosphate buffer solution. The 50 mL conical tube in which the immersed dialysis bag was put was placed in a shaking tank maintained at 37° C. and shaken at 100 rpm horizontally. Then, at scheduled time intervals, a release medium (PBS) aliquot of 1.5 mL was collected and the entire release medium was replaced with new PBS to maintain a sink condition. Quantification of the released bupivacaine was determined by reverse-phase high-performance liquid chromatography (RP-HPLC) using a ZORBAX Eclipse XDB C18 column (4.6 mm×250 mm, 5 μm) and acetonitrile/pH 8.0 buffer (60:40, v/v) for 10 minutes or more.

SMILES	time at which the pain was completely recovered (Sprague-Dawley rats)	threshold value (g), group average (Sprague-Dawley rats; 0 hr (before administration))	threshold value (g), group average (Sprague-Dawley rats; 1 hr)	threshold value (g), group average (Sprague-Dawley rats; 2 hr)	threshold value (g), group average (Sprague-Dawley rats; 4 hr)	threshold value (g), group average (Sprague-Dawley rats; 8 hr)	threshold value (g), group average (Sprague-Dawley rats; 24 hr)	threshold value (g), group average (Sprague-Dawley rats; 48 hr)	threshold value (g), group average (Sprague-Dawley rats; 72 hr)	threshold value (g), group average (Sprague-Dawley rats; 120 hr)	threshold value (g), group average (Sprague-Dawley rats; 168 hr)	cumulative release amount of bupivacaine [1]
CCCN1CCCC[C@H]1C(=O)Nc1c(C)cccc1C [Ropivacaine, ropivacaine]	120 h	60 g	60 g	60 g	37.3 g	31.7 g	28.0 g	17.5 g	29.8 g	60 g	60 g	–
CCCCN1CCCCC1C(=O)Nc1c(C)cccc1C (stereo not drawn) [bupivacaine]	–	–	–	–	–	–	–	–	–	–	–	99%
